In patent US20040115162A1, “Dermatological preparations” (KAO CORPORATION, priority 1999, published 2004):

Columns and labels:
horny layer = experiment: Test 1: skin conductance (water content of the horny layer) after 2-week application on cheeks; format: in vivo, human; parameters: unit not given here; conditions: preparation of 33% diamide derivative and 67% vaseline; applied on cheeks 2 weeks; ten female subjects with chapping; skin conductance meter, 20° C., humidity 45%
Protocol: (§1) Dermatologic preparations (invention products) composed of 33% of each of the diamide derivatives prepared in Preparation Examples 1 to 18 and 67% of vaseline were prepared. Their effects on skin conductance and chapping were evaluated in the below-described manner. For comparison, a dermatologic preparation (Comparative Product 1) composed of vaseline alone was evaluated in the same manner.
(§2) Ten female subjects aged 20 to 50 years, who suffered chapping in cheeks in winter, were employed. Different dermatologic preparations were applied on the right and left cheeks of the subjects for 2 weeks, respectively. On the next day after completion of the application for 2 weeks, the following items were examined.
The face of each subject was washed with warm water of 37° C. After they were allowed to stand in a room at 20° C. under a humidity of 45% for 20 minutes, the water content of the horny layer was measured using a skin conductance meter (product of IBS Co., Ltd.).

chapping in cheeks = experiment: Test 1: skin chapping score by naked-eye observation after 2-week application on cheeks; format: in vivo, human; conditions: 33% diamide derivative and 67% vaseline, 2 weeks, mean score, 0 no chapping to 4 serious chapping
Protocol: as §1, §2
Each score is expressed in the mean value.
0: No chapping is observed.
1: Slight chapping is observed.
3: Somewhat serious chapping is observed.
4: Serious chapping is observed.

[1] = system: dorsal skin of rats with essential fatty acid deficiency; experiment: Test 2: transepidermal water loss in rats with essential fatty acid deficiency; format: in vivo, Wistar male rats; parameters: unit not given here; conditions: 10% diamide derivative and 90% squalane; applied to shaven dorsal part once a day for 2 weeks; evaporimeter; mean of 5 rats
Protocol: (§3) Dermatologic preparations (invention products) of the present invention composed of 10% of each of the diamide derivatives prepared in Preparation Examples 1 to 18 and 90% of squalane were prepared and their transepidermal water loss and percutaneous absorption were evaluated by the below-described test method. For comparison, a dermatologic preparation (Comparative Product 2) composed of squalane alone was also evaluated by the test.
(§4) Wistar male rats were fed with a feed free from essential fatty acids and the resulting rats with essential fatty acid deficiency were employed in this test. The dorsal part of the rat showing essential fatty acid deficiency was carefully shaven and each dermatologic preparation to be evaluated was applied thereto once a day for 2 weeks. A group consisting of 5 rats was provided for the test of each dermatologic preparation. After 2 weeks, the following items were examined.
The dorsal part of the test rat was washed with warm water and the animal was the allowed to stand in a room (at 23° C. under a humidity of 45%) for 1 hour. The transepidermal water loss was then measured with an evaporimeter. Each measured value is expressed in mean value.

[2] = system: dorsal skin of rats with essential fatty acid deficiency; experiment: Test 2: percutaneous absorption of 14C-salicylic acid through excised dorsal skin of treated rats; format: in vivo, Wistar male rats; conditions: 10% diamide derivative and 90% squalane; once a day for 2 weeks; radioactivity of 14C-salicylic acid penetrated in 2 hours through excised skin; mean
Protocol: as §3, §4
After the dorsal skin of the rat was washed with warm water of 37° C., it was cut and fixed in a percutaneous absorption chamber with the epidermal side thereof directed upward. A lower receiver of the chamber was filled with a phosphate buffer solution while a container on the epidermal side thereof was charged with 1 ml of a phosphate buffer solution containing 37 KBq of ^14C-salicylic acid. Two hours after they were allowed to stand, 1 mL of the phosphate buffer solution was taken out of the lower receiver and the radioactivity of the ^14C-salicylic acid which had penetrated into it was measured. Each value is expressed in mean value.

[3] = Miscibility and mixing stability in cosmetic formulations; format: physicochemical
[4] = in hair liquid composition of Table 10, 1%

| miscibility and mixing stability ([3]; in shampoo of Table 9, 2%) | miscibility and mixing stability ([3]; in skin lotion of Table 7, 1%) | miscibility and mixing stability ([3]; in O/W cream of Table 8, 3.5%) | miscibility and mixing stability [3, 4] | Structure (SMILES) | Skin conductance (horny layer) | Skin chapping score (chapping in cheeks) | Transepidermal water loss [1] | Percutaneous absorption [2] |
| --- | --- | --- | --- | --- | --- | --- | --- | --- |
| excellent | excellent |  |  | CC(CCCCCCC(=O)NCCOCCO)CCCCC(C)CCCCCCC(=O)NCCOCCO (stereo not drawn) [Compound (A)] | 28 | 0.6 | 12 | 572 |
|  |  |  |  | C/C(=C\CC/C=C(\C)CCCCCCC(=O)NCCOCCO)CCCCCCC(=O)NCCOCCO [Compound (B)] | 25 | 0.9 | 12 | 558 |
|  |  |  |  | O=C(CCCCCCCCCCCCCCCCCCC(=O)NCCOCCO)NCCOCCO [Compound (C)] | 21 | 1.0 | 21 | 1685 |
|  |  | excellent | excellent | O=C(CCCCCCCCC(=O)NCCOCCO)NCCOCCO [Compound (D)] | 30 | 0.5 | 15 | 997 |
|  |  |  |  | O=C(CCC(=O)NCCOCCO)NCCOCCO [Compound (E)] | 18 | 1.0 | 25 | 1772 |
| excellent | excellent | excellent | excellent | COCCCNC(=O)CCCCCCC(C)CCCCC(C)CCCCCCC(=O)NCCCOC (stereo not drawn) [Compound (F)] | 20 | 1.2 | 20 | 1487 |
|  |  |  |  | CCCCCCCCCCCCOCCCNC(=O)CCCCCCC(C)CCCCC(C)CCCCCCC(=O)NCCCOCCCCCCCCCCCC (stereo not drawn) [Compound (G)] | 17 | 1.1 | 16 | 1096 |
|  |  |  |  | COCCOCCNC(=O)CCCCCCC(C)CCCCC(C)CCCCCCC(=O)NCCOCCOC (stereo not drawn) [Compound (H)] | 19 | 1.3 | 23 | 2036 |
|  |  |  |  | O=C(CCCCCCCCCCCCCC(=O)NCCOCCO)NCCOCCO [Compound (I)] |  |  | 18 | 1197 |
|  |  |  |  | O=C(CCCCCCCCCCCC(=O)NCCOCCO)NCCOCCO [Compound (J)] | 23 | 0.8 | 21 | 1490 |
|  |  |  |  | O=C(CCCCCCCCCCC(=O)NCCOCCO)NCCOCCO [Compound (K)] |  |  | 22 | 1694 |
|  |  |  |  | COCCCNC(=O)CCCCCCCCCCCCCCCCCCC(=O)NCCCOC [Compound (L)] | 19 | 1.3 | 15 | 705 |
|  |  |  |  | COCCCNC(=O)CCCCCCCCCCC(=O)NCCCOC [Compound (M)] |  |  | 25 | 2038 |
|  |  |  |  | COCCCNC(=O)CCCCCCCCC(=O)NCCCOC [Compound (N)] | 18 | 1.5 | 23 | 1560 |
|  |  |  |  | CCCCCCCCCCCCOCCCNC(=O)CCCCCCCCC(=O)NCCCOCCCCCCCCCCCC [Compound (O)] |  |  | 27 | 2476 |
